Key:
Assay type in all cases: cell-based
[1] = target: T1, ENT1 (Homo sapiens, UniProt Q99808); assay: [3H]uridine uptake in PK15NTD/ENT1 cells; conditions: [3H]uridine 1 μM, 1 min, PK15NTD/ENT1 cells; read-out: IC50 against ENT1
T1 construct: expressed in transfected cells
T1 sequence (Q99808 1-456): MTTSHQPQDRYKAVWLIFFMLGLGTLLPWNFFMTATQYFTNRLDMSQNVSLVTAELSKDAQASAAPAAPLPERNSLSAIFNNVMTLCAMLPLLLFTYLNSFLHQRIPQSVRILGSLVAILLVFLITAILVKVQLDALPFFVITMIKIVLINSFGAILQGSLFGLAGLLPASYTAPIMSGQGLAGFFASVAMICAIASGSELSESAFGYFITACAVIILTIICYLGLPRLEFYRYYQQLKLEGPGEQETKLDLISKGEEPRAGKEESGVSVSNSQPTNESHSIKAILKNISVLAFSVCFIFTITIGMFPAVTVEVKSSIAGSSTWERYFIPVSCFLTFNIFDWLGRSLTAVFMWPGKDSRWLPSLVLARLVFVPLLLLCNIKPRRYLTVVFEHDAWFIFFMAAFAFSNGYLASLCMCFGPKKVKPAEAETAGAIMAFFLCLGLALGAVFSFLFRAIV
Method: (§1) Nucleoside transporter-deficient porcine kidney fibroblast cells (PK15NTD) stably transfected with cloned human ENT1 or ENT2 ([Ward et al., 2000]) were used as the in vitro models. The cells were cultured in Dulbecco’s Modified Eagle’s Medium (DMEM) supplemented with 10% (v/v) foetal bovine serum, 0.5 mg/ml geneticin, 100 units/ml penicillin, 100 μg/ml streptomycin and 0.25 μg/ml of amphotericin B at 37°C in 5% CO2/95% air.
(§2) Confluent monolayers of PK15NTD/ENT1 and PK15NTD/ENT2 cells in 24-well plates were washed thrice with HEPES-buffered Ringer’s solution containing (mM): 135 NaCl, 10 glucose, 5 KCl, 5 HEPES, 3.33 NaH2PO4, 1.0 CaCl2, 1.0 MgCl2, 0.83 Na2HPO4; pH 7.4. The cells were incubated with different concentrations of FPMINT analogues (from 10 nM to 100 μM) containing [^3H]uridine (2 μCi/ml, 1 μM) for 1 min. Passive uridine uptake was determined by incubating the cells in HEPES-buffered Ringer’s solution containing [^3H]uridine in the presence of 0.5 mM NBMPR. The cells were rapidly washed five times with ice-cold phosphate-buffered saline (PBS). After air-drying, the cells were solubilised by overnight incubation in 500 μl of 5% Triton-X100. Next, 300 μl of the cell lysates were mixed with 2 ml of scintillation liquid. The radioactivity of each sample was quantified by a scintillation counter. The protein content in each well was determined spectrophotometrically using a commercial bicinchoninic acid assay (Pierce Biochemicals, Rockford, IL). Uptake values were expressed as picomoles of [^3H]uridine per milligram of cellular protein per minute.
(§3) All data were analysed by GraphPad Prism software (San Diego, CA, United States). Data are expressed as mean ± standard error (SE) of three experiments performed in triplicate. The IC50 values were determined from the dose-response curves fitted with a logistic function. For the kinetic study of [^3H]uridine uptake, apparent K m and V max values were determined from the Michaelis-Menten equation, and K i was determined from the X-intercept of linear regression. Analysis of variance and Student’s t-test were performed for multiple and paired variables, respectively. p values of <0.05 were considered to be statistically significant.

[2] = target: T2, ENT2 (Homo sapiens, UniProt Q14542); assay: [3H]uridine uptake in PK15NTD/ENT2 cells; conditions: [3H]uridine 1 μM, 1 min, PK15NTD/ENT2 cells; read-out: IC50 against ENT2
T2 construct: expressed in transfected cells
T2 sequence (Q14542 1-456): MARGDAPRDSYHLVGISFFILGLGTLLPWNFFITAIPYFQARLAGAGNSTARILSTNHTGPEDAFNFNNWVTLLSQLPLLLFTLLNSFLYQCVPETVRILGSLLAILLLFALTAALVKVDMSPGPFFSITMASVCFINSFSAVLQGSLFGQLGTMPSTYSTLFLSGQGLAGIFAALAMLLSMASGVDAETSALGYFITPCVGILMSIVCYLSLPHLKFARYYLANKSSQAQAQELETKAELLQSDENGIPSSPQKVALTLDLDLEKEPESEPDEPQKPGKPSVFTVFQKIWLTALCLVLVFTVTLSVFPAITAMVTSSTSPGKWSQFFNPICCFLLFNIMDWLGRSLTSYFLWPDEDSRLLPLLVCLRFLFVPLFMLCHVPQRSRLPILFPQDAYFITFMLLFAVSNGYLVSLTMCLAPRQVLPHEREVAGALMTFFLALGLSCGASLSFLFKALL
Method: as §1
as §2, with “The” for “Confluent monolayers of PK15NTD/ENT1 and PK15NTD/ENT2 cells in 24-well plates were washed thrice with HEPES-buffered Ringer’s solution containing (mM): 135 NaCl, 10 glucose, 5 KCl, 5 HEPES, 3.33 NaH2PO4, 1.0 CaCl2, 1.0 MgCl2, 0.83 Na2HPO4; pH 7.4. The”
as §3

[3] = target: T1, ENT1; assay: Kinetic study of [3H]uridine uptake in PK15NTD/ENT1 cells
Method: as §1, §2, §3
Compound 3c was selected for further investigation. The kinetic study of [^3H]uridine transport was performed by measuring the concentration-dependent uptake of [^3H]uridine. This study could provide clue about the mode of action of compound 3c. The uptake of [^3H]uridine by ENT1 and ENT2 was saturable and conformed to Michaelis-Menten kinetics. Compound 3c decreased the V max of ENT1 but had no effect on K m . […] The slopes of the linear 1/V versus 1/[S] plots increased with the concentration of compound 3c (Figure 4B).
FIGURE 4 Competitive inhibition of ENT1 and ENT2 by compound 3c. Kinetic study of [^3H]uridine uptake (0.1 μM–1 mM) was measured in (A) PK15NTD/ENT1 and (D) PK15NTD/ENT2 cells in the presence of various concentrations of compound 3c (0, 0.01, 0.1, 1 and 10 µM) (B,E) 1/V versus 1/[S] plots of each curve in (A) and (D), respectively (C,F) The plot of slopes of each line in (B) and (E), respectively, versus the concentration of compound 3c. Data are presented as mean ± SE of three experiments.

## Cc1cccc(Nc2nc(N)nc(CN3CCN(c4ccc(F)cc4)CC3)n2)c1 [Compound 3c]
[1]
  IC50: 2.38 µM
[2]
  IC50: 0.57 µM
[3]; 0.01 µM compound 3c
  apparent Vmax of ENT1: 2083 ± 36.80 pmol/mg protein/min
[3]; 0.1 µM compound 3c
  apparent Vmax of ENT1: 1867 ± 27.63 pmol/mg protein/min
[3]; 1 µM compound 3c
  apparent Vmax of ENT1: 1377 ± 37.81 pmol/mg protein/min
[3]; 10 µM compound 3c
  apparent Vmax of ENT1: 732.9 ± 12.02 pmol/mg protein/min
[3]; decreased Vmax, apparent Km unchanged
  mode of inhibition of ENT1-mediated uridine transport: non-competitive inhibitor
[3]; x-intercept of slopes versus concentration plot
  Ki: 2.79 µM
